Each compound was assayed on HIV-IIIb (assay: Test A: Antiviral assay in MT4 cells). Conditions: Human immunodeficiency virus 1, IIIB, MT4, 120 h, read-out: % inhibition at 2 μM, percent inhibition of virus-induced cell killing, from dose response curve at 2 uM drug; MT-4 cells infected with HIV-IIIb, 5 days, CellTiter-Glo.
Assay type: cell-based, HIV-1

SMILES	inhibition at 2 µM [%]
NC(=O)c1cc(-c2cccnc2[C@H](Cc2cc(F)cc(F)c2)NC(=O)Cn2nc(C(F)(F)F)c3c2C[C@H]2C[C@@H]32)ccc1F (single isomer, unassigned) [Example 173]	94
NC(=O)c1cc(-c2cccnc2[C@H](Cc2cc(F)cc(F)c2)NC(=O)Cn2nc(C(F)(F)F)c3c2C[C@@H]2C[C@H]32)ccc1F (single isomer, unassigned) [Example 174]	71
NC(=O)c1cc(-c2cccnc2[C@H](Cc2cc(F)cc(F)c2)NC(=O)Cn2nc(C(F)F)c3c2C(F)(F)C2CC32)ccc1F (single isomer, unassigned) [Example 215]	80
NC(=O)c1cccc(-c2cccnc2[C@H](Cc2cc(F)cc(F)c2)NC(=O)Cc2c[nH]c3ccc(O)cc23)c1 [Example 39, (S)-3-(2-(2-(3,5-difluorophenyl)-1-(2-(5-hydroxy-1H-indol-3-yl)acetamido)ethyl)pyridin-3-yl)benzamide]	99
NC(=O)c1cccc(-c2cccnc2[C@H](Cc2cc(F)cc(F)c2)NC(=O)Cc2c[nH]c3ccc(F)cc23)c1 [Example 50D, (S)-3-(2-(2-(3,5-difluorophenyl)-1-(2-(5-fluoro-1H-indol-3-yl)acetamido)ethyl)pyridin-3-yl)benzamide]	106
NC(=O)c1cc(-c2cccnc2[C@H](Cc2cc(F)cc(F)c2)NC(=O)Cn2nc(C(F)F)c3c2C(F)(F)C2CC32)ccc1F (stereo partly drawn) [Example 60H, 5-(2-((1S)-1-(2-(3-(difluoromethyl)-5,5-difluoro-3b,4,4a,5-tetrahydro-1H-cyclopropa[3,4]cyclopenta[1,2-c]pyrazol-1-yl)acetamido)-2-(3,5-difluorophenyl)ethyl)pyridin-3-yl)-2-fluorobenzamide]	97
NC(=O)c1cc(-c2cccnc2[C@H](Cc2cc(F)cc(F)c2)NC(=O)Cn2nc(C(F)F)c3c2C2CCC3C2)ccc1F (stereo partly drawn) [Example 83, (S)-5-(2-(2-(3,5-difluorophenyl)-1-(2-(4,5,6,7-tetrahydro-3-difluoromethyl-4,7-(methano)indazol-1-yl)acetamido)ethyl)pyridin-3-yl)-2-fluorobenzamide]	92
NC(=O)c1cc(-c2cccnc2[C@H](Cc2cc(F)cc(F)c2)NC(=O)Cn2nc(C(F)(F)F)c3c2CCCC3(F)F)ccc1F [Example 102D, (S)-5-(2-(1-(2-(4,4-difluoro-3-(trifluoromethyl)-4,5,6,7-tetrahydro-1H-indazol-1-yl)acetamido)-2-(3,5-difluorophenyl)ethyl)pyridin-3-yl)-2-fluorobenzamide]	50
NC(=O)c1cc(-c2cccnc2[C@H](Cc2cc(F)cc(F)c2)NC(=O)Cn2nc(C(F)(F)F)c3c2CCOC3)ccc1F [Example 112B, (S)-5-(2-(2-(3,5-difluorophenyl)-1-(2-(3-(trifluoromethyl)-6,7-dihydropyrano[4,3-c]pyrazol-1(4H)-yl)acetamido)ethyl)pyridin-3-yl)-2-fluorobenzamide]	28
NC(=O)c1cc(-c2cccnc2[C@H](Cc2cc(F)cc(F)c2)NC(=O)Cn2nc(C(F)(F)F)c3c2CC2CC32)ccc1F (stereo partly drawn) [Example 122G, 5-(2-((1S)-2-(3,5-difluorophenyl)-1-(2-(3-(trifluoromethyl)-3b,4,4a,5-tetrahydro-1H-cyclopropa[3,4]cyclopenta[1,2-c]pyrazol-1-yl)acetamido)ethyl)pyridin-3-yl)-2-fluorobenzamide]	101
NC(=O)c1cc(-c2cccnc2[C@H](Cc2cc(F)cc(F)c2)NC(=O)Cn2nc(C(F)(F)F)c3c2CCC3)ccc1F [Example 134, (S)-5-(2-(2-(3,5-difluorophenyl)-1-(2-(3-(trifluoromethyl)-5,6-dihydrocyclopenta[c]pyrazol-1(4H)-yl)acetamido)ethyl)pyridin-3-yl)-2-fluorobenzamide]	98
NC(=O)c1cc(-c2cccnc2[C@H](Cc2cc(F)cc(F)c2)NC(=O)Cn2nc(C(F)(F)F)c3c2C2CC2C3)ccc1F (stereo partly drawn) [Example 169E, 5-(2-((1S)-2-(3,5-difluorophenyl)-1-(2-(3-(trifluoromethyl)-4,4-a,5,5a-tetrahydro-1H-cyclopropa[4,5]cyclopenta[1,2-c]pyrazol-1-yl)acetamido)ethyl)pyridin-3-yl)-2-fluorobenzamide]	94
NC(=O)c1cc(-c2cccnc2[C@H](Cc2cc(F)cc(F)c2)NC(=O)Cn2nc(C(F)(F)F)c3c2C(F)(F)C2CC32)ccc1F (stereo partly drawn) [Example 181E, 5-(2-((1S)-1-(2-(5,5-difluoro-3-(trifluoromethyl)-3b,4,4a,5-tetrahydro-1H-cyclopropa[3,4]cyclopenta[1,2-c]pyrazol-1-yl)acetamido)-2-(3,5-difluorophenyl)ethyl)pyridin-3-yl)-2-fluorobenzamide]	99
NC(=O)c1cc(-c2cccnc2[C@H](Cc2cc(F)cc(F)c2)NC(=O)Cn2nc(C(F)(F)F)c3ccccc32)ccc1F [Example 250, (S)-5-(2-(2-(3,5-difluorophenyl)-1-(2-(3-(trifluoromethyl)-1H-indazol-1-yl)acetamido)ethyl)pyridin-3-yl)-2-fluorobenzamide]	19
O=C(Cc1c[nH]c2ccc(O)cc12)N[C@H](Cc1cc(F)cc(F)c1)c1ncncc1-c1ccc(Cl)cc1 [Example 284, (R)—N-(1-(5-(4-chlorophenyl)pyrimidin-4-yl)-2-(3,5-difluorophenyl)ethyl)-2-(5-hydroxy-1H-indol-3-yl)acetamide]	50
NC(=O)c1cc(-c2cccnc2[C@H](Cc2cc(F)cc(F)c2)NC(=O)Cn2nc(C(F)(F)F)c3c2C(F)(F)CCC3)ccc1F [Example 311B, (S)-5-(2-(1-(2-(7,7-difluoro-3-(trifluoromethyl)-4,5,6,7-tetrahydro-1H-indazol-1-yl)acetamido)-2-(3,5-difluorophenyl)ethyl)pyridin-3-yl)-2-fluorobenzamide]	97
O=C(Cc1c[nH]c2ccc(O)cc12)N[C@@H](Cc1cc(F)cc(F)c1)c1ncncc1-c1ccc(Cl)cc1 [Example 316, (S)—N-(1-(5-(4-chlorophenyl)pyrimidin-4-yl)-2-(3,5-difluorophenyl)ethyl)-2-(5-hydroxy-1H-indol-3-yl)acetamide]	100
NC(=O)c1cc(-c2cccnc2[C@H](Cc2cc(F)cc(F)c2)NC(=O)Cn2nc(C(F)F)c3c2C(F)(F)CCC3(F)F)ccc1F [Example 344, (S)-5-(2-(1-(2-(3-(difluoromethyl)-4,4,7,7-tetrafluoro-4,5,6,7-tetrahydro-1H-indazol-1-yl)acetamido)-2-(3,5-difluorophenyl)ethyl)pyridin-3-yl)-2-fluorobenzamide]	93
NC(=O)c1cc(-c2cccnc2[C@H](Cc2cc(F)cc(F)c2)NC(=O)Cn2nc(C(F)(F)F)c3c2CNCC3)ccc1F [Example 352, (S)-5-(2-(2-(3,5-difluorophenyl)-1-(2-(3-(trifluoromethyl)-4,5,6,7-tetrahydro-1H-pyrazolo[3,4-c]pyridin-1-yl)acetamido)ethyl)pyridin-3-yl)-2-fluorobenzamide]	16
NC(=O)c1cccc(-c2cccnc2[C@H](Cc2cc(F)cc(F)c2)NC(=O)Cn2ccc3ccccc32)c1 [Example 426, (S)-3-(2-(1-(2-(1H-indol-1-yl)acetamido)-2-(3,5-difluorophenyl)ethyl)pyridin-3-yl)benzamide]	19
O=C(Cc1c[nH]c2ccc(O)cc12)NC(Cc1cc(F)cc(F)c1)c1nccnc1-c1ccc(Cl)cc1 (stereo not shown) [Example 443I, N-(1-(3-(4-chlorophenyl)pyrazin-2-yl)-2-(3,5-difluorophenyl)ethyl)-2-(5-hydroxy-1H-indol-3-yl)acetamide]	82
NC(=O)c1cc(-c2cccnc2[C@H](Cc2cc(F)cc(F)c2)NC(=O)Cn2ccc(C(F)(F)F)n2)ccc1F [Example 455, (S)-5-(2-(2-(3,5-difluorophenyl)-1-(2-(3-(trifluoromethyl)-1H-pyrazol-1-yl)acetamido)ethyl)pyridin-3-yl)-2-fluorobenzamide]	4
NC(=O)c1cc(-c2cccnc2[C@H](Cc2cc(F)cc(F)c2)NC(=O)Cn2nc(C(F)(F)F)c3c2C2CC2C3(F)F)ccc1F (stereo partly drawn) [Example 462J, 5-(2-((1S)-1-(2-(4,4-difluoro-3-(trifluoromethyl)-4,4-a,5,5a-tetrahydro-1H-cyclopropa[4,5]cyclopenta[1,2-c]pyrazol-1-yl)acetamido)-2-(3,5-difluorophenyl)ethyl)pyridin-3-yl)-2-fluorobenzamide]	2
NC(=O)c1cc(-c2cccnc2[C@H](Cc2cc(F)cc(F)c2)NC(=O)Cn2nc(C(F)F)c(C3CC3)c2C(F)F)ccc1F [Example 562, (S)-5-(2-(1-(2-(4-cyclopropyl-3,5-bis(difluoromethyl)-1H-pyrazol-1-yl)acetamido)-2-(3,5-difluorophenyl)ethyl)pyridin-3-yl)-2-fluorobenzamide]	42

Same assay, conditions: percent inhibition of virus-induced cell killing, from dose response curve at 2 uM drug; MT-4 cells infected with HIV-IIIb, 5 days, CellTiter-Glo

SMILES	% inhibition at 2 μM [%]
NC(=O)c1cc(-c2cccnc2[C@H](Cc2cc(F)cc(F)c2)NC(=O)Cn2nc(C(F)F)c3c2C(F)(F)C2CC32)ccc1F (single isomer, unassigned) [Example 216]	86
NC(=O)c1cc(-c2cccnc2[C@H](Cc2cc(F)cc(F)c2)NC(=O)Cn2nc(C(F)(F)F)c3c2C(F)(F)C2CC32)ccc1F (single isomer, unassigned) [Example 449]	94
NC(=O)c1cc(-c2cccnc2[C@H](Cc2cc(F)cc(F)c2)NC(=O)Cn2nc(C(F)(F)F)c3c2C(F)(F)C2CC32)ccc1F (single isomer, unassigned) [Example 450]	33
NC(=O)c1cc(-c2cccnc2[C@H](Cc2cc(F)cc(F)c2)NC(=O)Cn2nc(C(F)(F)F)c3c2[C@@H]2C[C@@H]2C3)ccc1F [Example 187, 5-(2-((S)-2-(3,5-difluorophenyl)-1-(2-((4aR,5aR)-3-(trifluoromethyl)-4,4-a,5,5a-tetrahydro-1H-cyclopropa[4,5]cyclopenta[1,2-c]pyrazol-1-yl)acetamido)ethyl)pyridin-3-yl)-2-fluorobenzamide]	31

Reference: patent US9540343B2 (Gilead Sciences, Inc., priority 2011, dated 2017)
